Measurements reported in patent publication US20240301319A1, “PERFUMING COMPOSITIONS” (FIRMNICH SA, priority 2017, published 2024).
Each block holds one compound with its values, some of them ahead of it.

Tests used:
[1] = Volatility of perfuming compounds (Tables 4 to 10), with top/middle/bottom note type; format: physicochemical
Procedure, shortened: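 Volatility is expressed in μg/l in air. Top notes are 70,000 to 100 μg/l, middle notes 99 to 50 μg/l, and bottom notes 49 to 0.1 μg/l. Compounds are grouped by olfactive family: watery, green, fruity, citrus, sweet, gourmand and woody.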

[2] = Odor threshold and odor value of perfuming compounds (Tables 4 to 10)
[3] = Table 10, perfuming compounds having a woody note, note type by volatility
[4] = Table 6, perfuming compounds having a fruity note
[5] = Table 6, perfuming compounds having a fruity note, note type by volatility
[6] = Table 8, perfuming compounds having a sweet note
[7] = Table 8, perfuming compounds having a sweet note, note type by volatility
[8] = Table 9, perfuming compounds having a gourmand note, note type by volatility
[9] = note type (Top/Middle/Bottom) by volatility, perfuming compounds having a green note
[10] = perfuming compounds having a green note
[11] = Table 4, watery note, top, middle or bottom note
[12] = Table 4, watery note, equals volatility divided by odor threshold

Type [1, 3]: Top | Volatility ([1]; Table 10, woody note): 755.28 μg/l air
Structure (SMILES): CC(C)(C)C1CCC(=O)CC1 [4-(2-methyl-2-propanyl)cyclohexanone]
Odor Threshold ([2]; Table 10, woody note): 1.15E−01 μg/l air

Volatility [1, 4]: 79.34 μg/l air | Type [1, 5]: Middle | Volatility (μg/l air) ([1]; Table 7, citrus note): 79.34 μg/l air | Type ([1]; Table 7, citrus note, top, middle or bottom note): Middle
Structure (SMILES): CC(C)(O)CCC1CCCCC1 [4-CYCLOHEXYL-2-METHYL-2-BUTANOL]
Odor Threshold [2, 4]: 2.83E−02 μg/l air | Odor Value [2, 4]: 2.81E+03 | Odor Threshold (μg/l air) ([2]; Table 7, citrus note): 2.83E−02 μg/l air | Odor Value ([2]; Table 7, citrus note, equals volatility divided by odor threshold): 2.81E+03

Volatility [1, 4]: 17.59 μg/l air | Type [1, 5]: Bottom
Structure (SMILES): COc1ccc(COC(C)=O)cc1 [4-METHOXYBENZYL ACETATE]
Odor Threshold [2, 4]: 9.24E−05 μg/l air | Odor Value [2, 4]: 1.90E+05

Volatility [1, 6]: 4.24 μg/l air | Type [1, 7]: Bottom | Volatility ([1]; Table 9, gourmand note): 4.24 μg/l air | Type [1, 8]: Bottom
Structure (SMILES): COc1cc(C=O)ccc1O [4-hydroxy-3-methoxybenzaldehyde]
Odor Threshold [2, 6]: 6.75E−06 μg/l air | Odor Value [2, 6]: 6.28E+05 | Odor Threshold ([2]; Table 9, gourmand note): 6.75E−06 μg/l air

Type [1, 3]: Bottom | Volatility ([1]; Table 10, woody note): 14.41 μg/l air
Structure (SMILES): CC(=O)OC1CCC2C(C)(C)CCCC2(C)C1 (stereo not drawn) [5,5,8a-trimethyldecahydro-2-naphthalenyl acetate]
Odor Threshold ([2]; Table 10, woody note): 4.19E−04 μg/l air

Volatility [1, 6]: 5525.83 μg/l air | Type [1, 7]: Top
Structure (SMILES): CC=CC(=O)C(C)CC (stereo not drawn) [5-METHYL-2-HEPTEN-4-ONE]
Odor Threshold [2, 6]: 7.62E−07 μg/l air | Odor Value [2, 6]: 7.26E+09

Volatility [1, 4]: 128.04 μg/l air | Volatility [1, 6]: 128.04 μg/l air | Type [1, 7]: Top | Type [1, 9]: Top | Volatility (μg/l air) [1, 10]: 128.04 μg/l air
Structure (SMILES): CCC(CC(C)CC)=NO (stereo not drawn) [5-METHYL-3-HEPTANONE OXIME]
Type [1, 5]: TOP (perfuming compounds having a volatility ranging from 70,000 to 100 μg/l in air are referred to as “top notes”) | Odor Threshold [2, 4]: 8.80E−03 μg/l air | Odor Value [2, 4]: 1.45E+04 | Odor Threshold [2, 6]: 8.80E−03 μg/l air | Odor Value [2, 6]: 1.45E+04 | Odor Threshold (μg/l air) [2, 10]: 8.80E−03 μg/l air

Volatility ([1]; Table 9, gourmand note): 128.04 μg/l air | Type [1, 8]: Top
Structure (SMILES): CCC(CC(C)CC)=NO (stereo not drawn) [5-METHYL-3-HEPTANONEOXIME]
Odor Threshold ([2]; Table 9, gourmand note): 8.80E−03 μg/l air

Volatility [1, 4]: 23.87 μg/l air | Type [1, 5]: Bottom | Volatility [1, 6]: 23.87 μg/l air | Type [1, 7]: Bottom | Volatility ([1]; Table 9, gourmand note): 23.87 μg/l air | Type [1, 8]: Bottom
Structure (SMILES): CCCCC1CCCC(=O)O1 (stereo not drawn) [5-NONANOLIDE]
Odor Threshold [2, 4]: 1.16E−05 μg/l air | Odor Value [2, 4]: 2.06E+06 | Odor Threshold [2, 6]: 1.16E−05 μg/l air | Odor Value [2, 6]: 2.06E+06 | Odor Threshold ([2]; Table 9, gourmand note): 1.16E−05 μg/l air

Volatility (μg/l air) ([1]; Table 4, watery note): 4.37 μg/l air | Type [1, 9]: Bottom | Volatility (μg/l air) [1, 10]: 4.37 μg/l air
Structure (SMILES): CC(C)(C)c1ccc2c(c1)OCC(=O)CO2 [7-(2-methyl-2-propanyl)-2H-1,5-benzodioxepin-3(4H)-one]
Type [1, 11]: bottom (perfuming compounds having a volatility ranging from 49 to 0.1 μg/l in air are referred to as “bottom notes”) | Odor Threshold (μg/l air) ([2]; Table 4, watery note): 1.53E−04 μg/l air | Odor Value [2, 12]: 2.85E+04 | Odor Threshold (μg/l air) [2, 10]: 1.53E−04 μg/l air

Volatility (μg/l air) ([1]; Table 4, watery note): 56.74 μg/l air
Structure (SMILES): CC(C)c1ccc2c(c1)OCC(=O)CO2 [7-ISOPROPYL-2H,4H-1,5-BENZODIOXEPIN-3-ONE]
Type [1, 11]: middle (perfuming compounds having a volatility ranging from 99 to 50 μg/l in air are referred to as “middle notes”) | Odor Threshold (μg/l air) ([2]; Table 4, watery note): 3.20E−06 μg/l air | Odor Value [2, 12]: 1.77E+07

Volatility (μg/l air) ([1]; Table 4, watery note): 4.85 μg/l air | Type [1, 9]: Bottom | Volatility (μg/l air) [1, 10]: 4.85 μg/l air
Structure (SMILES): CCCc1ccc2c(c1)OCC(=O)CO2 [7-PROPYL-2H,4H-1,5-BENZODIOXEPIN-3-ONE]
Type [1, 11]: bottom (perfuming compounds having a volatility ranging from 49 to 0.1 μg/l in air are referred to as “bottom notes”) | Odor Threshold (μg/l air) ([2]; Table 4, watery note): 6.43E−05 μg/l air | Odor Value [2, 12]: 7.54E+04 | Odor Threshold (μg/l air) [2, 10]: 6.43E−05 μg/l air
